Measurements reported in PubChem BioAssay (NCI).
Values joined by “and” are separate entries in the source; they are usually repeats but may differ in a detail not shown here. Equal entries are not always repeated.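 Five compound concentrations were applied to cells in 96-well plates for 48 hours; endpoints were derived by simple linear interpolation of the resulting dose-response curve. Abbreviation: GI50, concentration required for 50% inhibition of growth. TGI is the concentration that stops growth completely.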

How the values were obtained:
Test in all cases: NCI tumour cell line growth inhibition, 48 h
[1] = system: HOP-62 NSCLC
[2] = system: U251 CNS
[3] = system: A498 renal
[4] = system: NCI-H23 lung
[5] = system: UACC-62 melanoma
[6] = system: OVCAR-3 ovarian
[7] = system: SK-MEL-28 melanoma
[8] = system: HCT-116 colon
[9] = system: SK-MEL-5 melanoma
[10] = system: KM12 colon

`Clc1ccccc1C1N2CCCCC2[C@@H]2c3[nH]c4ccccc4c3CCN12` (some centres undefined) gave a TGI [1] of 59.3 µM, a TGI [2] of 31.9 µM and a TGI [3] of 30.3 µM. It also gave a TGI [4] of 45.6 µM, a TGI [5] of 30.2 µM and a TGI [6] of 32.6 µM. It also gave a TGI [7] of 34.2 µM and a TGI [8] of 32.6 µM.
Molecule `C=CC[N+]1(CCO)CCN=C1CCCCCCCCCCCCC` (centres undefined) has a GI50 [1] of 1.72 µM, a TGI [1] of 3.09 µM and a GI50 [2] of 1.33 µM. It also gave a TGI [2] of 2.6 µM, a GI50 [3] of 2.09 µM and a TGI [3] of 8.26 µM. It also gave a GI50 [9] of 1.6 µM, a TGI [9] of 2.95 µM and a GI50 [4] of 1.5 µM. For the same molecule, the TGI [4] was 2.82 µM, the GI50 [5] was 1.82 µM and the TGI [5] was 3.52 µM. For the same molecule, the GI50 [7] was 1.75 µM, the TGI [7] was 3.12 µM and the GI50 [8] was 1.4 µM. It also gave a TGI [8] of 2.69 µM.
`COC1=C(C)C(=O)C2=C(C1=O)C(CO)N1C(C#N)C3CC4C(C1C2N1CCOC41)N3C` (centres undefined) was tested, and the GI50 [1] was 0.00557 µM, the TGI [1] was 0.973 µM and 0.902 µM and 3.34 µM and the GI50 [9] was 0.00264 µM and 0.0262 µM. For the same molecule, the TGI [9] was 0.214 µM and 0.0802 µM and 0.114 µM, the GI50 [4] was 0.00173 µM and < 0.0134 µM and the TGI [6] was 0.168 µM and 0.0383 µM and < 0.02 µM. The GI50 [10] was 0.0043 µM and 0.0305 µM.
In the case of `c1ccc(CCCC2Sc3cccc4cccc(c34)S2)cc1`, the TGI [1] is reported as > 100 µM, the TGI [2] is reported as > 100 µM and the TGI [9] is reported as > 100 µM. The TGI [4] was > 100 µM, the TGI [5] was > 100 µM and the TGI [6] was > 100 µM. For the same molecule, the TGI [10] was > 100 µM, the TGI [7] was > 100 µM and the TGI [8] was > 100 µM.
`N.N.N.N.N.N#N.[Cl-].[Os+7]` was tested, and the GI50 [2] was > 100 µM, the TGI [2] was > 100 µM and the GI50 [9] was > 100 µM. For the same molecule, the TGI [9] was > 100 µM, the GI50 [4] was > 100 µM and the TGI [4] was > 100 µM. For the same molecule, the GI50 [5] was > 100 µM, the TGI [5] was > 100 µM and the GI50 [6] was > 100 µM. The TGI [6] was > 100 µM, the GI50 [10] was > 100 µM and the TGI [10] was > 100 µM. The GI50 [7] was > 100 µM, the TGI [7] was > 100 µM and the GI50 [8] was > 100 µM. For the same molecule, the TGI [8] was > 100 µM.
In the case of `Fc1c[c-]c(-c2ccccn2)c(F)c1.[CH3-].[Pt+2].c1ccc([PH+](c2ccccc2)c2ccccn2)cc1`, the GI50 [1] is reported as 4.16 µM, the TGI [1] is reported as 44.2 µM and the GI50 [2] is reported as 1.88 µM. It also gave a TGI [2] of 6.02 µM, a GI50 [3] of 1.48 µM and a TGI [3] of 4.06 µM. The GI50 [9] was 1.6 µM, the TGI [9] was 3 µM and the GI50 [4] was 1.57 µM. The TGI [4] was 3.64 µM, the GI50 [6] was 1.44 µM and the TGI [6] was 2.88 µM. The GI50 [10] was 2.53 µM, the TGI [10] was 6.49 µM and the GI50 [7] was 1.64 µM. It also gave a TGI [7] of 3.15 µM, a GI50 [8] of 1.3 µM and a TGI [8] of 2.8 µM.
`C/C=C/C(=O)[C@@H](O)C(C)C` was tested, and the TGI [2] was > 100 µM, the TGI [9] was > 100 µM and the TGI [4] was > 100 µM. The TGI [5] was > 100 µM, the TGI [6] was > 100 µM and the TGI [10] was > 100 µM. The TGI [7] was > 100 µM and the TGI [8] was > 100 µM.
`CCN1CCC2(CC1)NC(=O)c1c(c3ccc(Cl)c(Cl)c3n1C)C2C#N` (centres undefined) showed a GI50 [1] of 1.61 µM, a TGI [1] of 3.13 µM and a GI50 [2] of 2.83 µM. The TGI [2] was 12 µM, the GI50 [3] was 1.34 µM and the TGI [3] was 3.32 µM. It also gave a GI50 [9] of 1.61 µM, a TGI [9] of 3.06 µM and a GI50 [4] of 3.71 µM. For the same molecule, the TGI [4] was 16 µM, the GI50 [5] was 1.77 µM and the TGI [5] was 3.32 µM. It also gave a GI50 [7] of 1.65 µM, a TGI [7] of 3.07 µM and a GI50 [8] of 2.49 µM. The TGI [8] was 4.29 µM.
`COc1ccc(C(=O)Nc2ccc(S(=O)(=O)NCC(=O)O)cc2)cc1` was tested, and the TGI [2] was > 100 µM, the TGI [3] was > 100 µM and the TGI [9] was > 100 µM. For the same molecule, the TGI [4] was > 100 µM, the TGI [5] was > 100 µM and the TGI [6] was > 100 µM. For the same molecule, the TGI [10] was > 100 µM and the TGI [7] was > 100 µM.
`O=C(O)c1c([N+](=O)[O-])cc(C(F)(F)F)cc1[N+](=O)[O-]` was tested, and the TGI [1] was > 100 µM, the TGI [2] was > 100 µM and the TGI [3] was > 100 µM. The TGI [9] was > 100 µM, the TGI [4] was > 100 µM and the TGI [6] was > 100 µM. For the same molecule, the TGI [10] was > 100 µM, the TGI [7] was > 100 µM and the TGI [8] was > 100 µM.
`CSc1c(S(C)=O)[nH]c2cc(Br)cc(Br)c12` (centres undefined) was tested, and the TGI [3] was 62.1 µM, the TGI [9] was 38.1 µM and the TGI [4] was 50.4 µM. It also gave a TGI [5] of 39.3 µM, a TGI [6] of 45 µM and a TGI [10] of 62.6 µM. The TGI [7] was 43.4 µM and the TGI [8] was 32.7 µM.
For `COc1cc(/C=C2\CCCC3C2=Nc2ccccc2NC3c2cc(OC)c(OC)c(OC)c2)cc(OC)c1OC` (centres undefined), the GI50 [1] was 1.86 µM, the TGI [1] was 8.4 µM and the GI50 [3] was 1.49 µM. The TGI [3] was 6.41 µM, the GI50 [9] was 1.95 µM and the TGI [9] was 5.72 µM. For the same molecule, the GI50 [4] was 2.15 µM, the TGI [4] was 13.8 µM and the GI50 [5] was 1.37 µM. It also gave a TGI [5] of 3.52 µM, a GI50 [6] of 2.08 µM and a TGI [6] of 6.07 µM. For the same molecule, the GI50 [10] was 0.863 µM, the TGI [10] was 2.21 µM and the GI50 [7] was 2.02 µM. For the same molecule, the TGI [7] was 5.24 µM, the GI50 [8] was 0.968 µM and the TGI [8] was 2.17 µM.
With `CC(C)[C@H]1CO[C@@H]2O[C@H](C)CC(=O)N21` the TGI [1] was > 100 µM, the TGI [2] was > 100 µM and the TGI [9] was > 100 µM. The TGI [4] was > 100 µM, the TGI [5] was > 100 µM and the TGI [6] was > 100 µM. For the same molecule, the TGI [10] was > 100 µM, the TGI [7] was > 100 µM and the TGI [8] was > 100 µM.
`COc1cc(-c2nc(-c3nnc(-c4ccc(F)c(Cl)c4)o3)c3ccccn23)cc(OC)c1OC` showed a GI50 [1] of 2.19 µM, a TGI [1] of 4.57 µM and a GI50 [2] of 1.86 µM. For the same molecule, the TGI [2] was 4.43 µM, the GI50 [3] was 1.55 µM and the TGI [3] was 6.76 µM. The GI50 [9] was 3.03 µM, the TGI [9] was > 100 µM and the GI50 [4] was 4 µM. For the same molecule, the TGI [4] was > 100 µM, the GI50 [6] was 2.76 µM and the TGI [6] was 8.69 µM.
For `NCCn1ccc(NC(c2ccccc2)(c2ccccc2)c2ccccc2)nc1=O`, the TGI [1] was 73.8 µM, the TGI [2] was 39.4 µM and the TGI [3] was > 100 µM. For the same molecule, the TGI [6] was 52.6 µM, the TGI [10] was 52.3 µM and the TGI [7] was 35 µM. The TGI [8] was 35.5 µM.
